Assay results published in paper PMC12281475, “Mediator Kinase Inhibitor Selectivity and Activity in Colorectal Cancer” (ACS Chemical Biology, 2025).

What was measured:
[1] = test system: MED14 phosphorylation in SW620 cells; test: CDK-substrate motif immunoprecipitation and MED14 immunoblot, SW620; format: cell-based, human; conditions: parent SW620, 350 nM, 6 h
Excerpt: 3 Mediator kinase knockout alters STAT1^SER727phosphorylation and promoter activity in SW620 human colon cancer cells. (A) Capillary immunoassay of Mediator kinase module expression and pSTAT1^SER727 biomarker in multiple independent knockout clones. GAPDH was included as a loading control. […] Controls included IgG alone for background, DMEM for untreated cells, and DMSO as a vehicle control. MED14 was detected as a doublet pair of bands by immunoblotting of cell lysates (middle gel panel). […] The lower panel includes vinculin as a loading control. (C) Promoter reporter results from CDK8 knockout clone 1 relative to parent SW620 cells. Data represent mean ± s.e.m (n = 3). The black horizontal line indicates unchanged reporter activity, while the horizontal red line highlights reporters with altered activity ±1.5-fold. […]
Cell monolayers were washed with PBS twice and lysed using a modified RIPA buffer, mRIPA (50 mM TRIS-HCl pH 7.4, 1% NP-40 substitute, 0.5% NaDOC, 150 mM NaCl, 1 mM EDTA, 0.02% SDS and 1:100 dilution of proteinase and phosphatase inhibitor cocktail, (#5872, Cell Signaling Technology) with overnight freezing at -80 °C and sonication of the cell pellet. Lysates were clarified by centrifugation and supernatants collected and protein concentration determined by a bicinchoninic acid (BCA) assay. […]

[2] = Plasma total concentration of compound (LC-MS/MS); format: in vivo, mice; conditions: 6 h after final dose
Protocol: for 20 mins at room temperature. […]
and body weights recorded. […]
quantification and pharmacodynamic biomarker analyses. All samples were stored […]
Plasma homogenates were extracted with 3 equivalent volumes of methanol containing olomoucine (500 nM) as an internal standard. Extracts were quantified for […]
ranging from 2 nM to 50 000 nM) with 4 quality control samples (25, 250,2500, and 7500 nM in duplicate) included at the beginning and the end of the analytical run.
Plasma homogenates were measured by LC−MS/MS on a Waters TQS following a separation on a Waters Acquity BEH C18 column (50 mm × 2.1 mm; 1.7 μm) with conditions of 0.1% formic acid (mobile phase A) and methanol (mobile phase B). The column was equilibrated at initial condition of 95% A and 5% B, linear gradient over 3 min to 100% B, held over 1 min, followed by linear gradient back to 5% B over 0.1 min, […]
mode by multiple reaction monitoring, 412.17 > 376.40at 33 eV for compound 109, […]
Phospho-proteome analyses
Adherent COLO205 cells were washed with PBS and cells lysed using urea lysis buffer (9 M Urea, 20 mM HEPES, pH 8.0, 1 mM beta-glycerophosphate, 1 mM sodium vanadate, 2.5 mM sodium pyrophosphate) and stored at -80 °C prior to analysis. The supernatants were reduced with 100 mM DTT for 30 minutes at 55 °C, followed by alkylation with 50 mM iodoacetimide for 15 minutes at ambient temperature in the dark. […]

[3] = test system: SW620 human solid tumor xenografts; test: Antitumor activity in SW620 tumor xenografts (parent and knockout clones); conditions: 42 mg/kg p.o. qd 5/7 days, 14-20 days
Protocol: Three separate clones were run for each knockdown condition (n = 7 control or treated mice per group for the parent and each individual clone). Tumors and plasma were collected 6 h after the final dose. For all graphs an ordinary one-way ANOVA with Dunnett’s correction was run to determine significance. […] Each point represents data from a knockout clone.
The establishment, treatment, pharmacokinetic analyses and processing of tumor samples from solid tumor xenografts was performed as described previously previously. , All procedures were performed in accordance with published NCRI guidelines and UK Government Home Office regulations.
The establishment, treatment, pharmacokinetic analysis and processing of tissue
samples from human tumour xenografts was performed as described previously.3,4 All
procedures were performed in accordance with published guidelines and UK
Government Home Office regulations.5 Female athymic nude mice Crl:NU-Foxn1nu
(Charles River Laboratories, US) were acclimatized for 1 week prior to use. Five million
SW620 human colorectal carcinoma cells were injected s.c. in the right flanks of 6–8
weeks old female NCr athymic mice under isofluorothane anesthesia. Therapy was
initiated when established tumours reached a mean volume of 60 mm (day 7). Animals
were randomly assigned into cohorts. Control mice received vehicle (0.5% Methocel,
at 42 mg/kg p.o qd for 5/7 days with a 2-day break after 1 week's dosing.
was prepared 24 h prior to administration to mice by weighing into a glass 30 mL
universal tube, and Methocel solution (0.5% Methocel, 0.25% Tween 20 in sterile
phosphate buffered saline) added to provide a final concentration of 3 mg/mL.
preparation was agitated at room temperature by magnetic stirrer to bring it into a fine
suspension before use. Animals were dosed orally by gavage every 24 h at 0.1 mL
per 10 g body weight. Tumours were measured three times weekly by Vernier calipers and body weights recorded. At the end of the study, day 3 for pharmacodynamic
biomarker analysis and day 14 for anti-tumour therapy experiments, animals were
culled 6 h after the final dose. Heparinized blood was collected by cardiac puncture,
spun, and the plasma snap frozen in liquid nitrogen for analysis of compound
exposure. Tumours were excised, weighed and samples snap frozen for compound

With `Cn1cc(-c2ccc(-c3cncc(Cl)c3N3CCC4(CCNC4=O)CC3)cc2)cn1` [CCT251545] the “MED14 upper band (immunoblot of cell lysates)” value [1] was “reduced by active compound treatment”.

For `Cn1ncc2cc(-c3cnc(N)c(Cl)c3N3CCC4(CCNC4=O)CC3)ccc21` [CCT251921], the “plasma total concentrations, parent versus knockout clones” value ([2]; 14-20 days, 42 mg/kg p.o qd 5/7 days, exception CDK8-KO-cl2 (p < 0.05)) was “no significant differences”, the “plasma levels in parent versus individual knockout clones” value ([2]; 3 days, 42 mg/kg p.o. qd) was “no significant difference” and the “antitumor activity, treated/control (T/C)” value ([3]; CDK8/19 double knockout SW620 xenografts, p < 0.005) was 113 ± 10%. The “antitumor activity, treated/control (T/C)” value ([3]; CDK8 knockout SW620 xenografts, ± s.e.m.) was 59 ± 6%, the “antitumor activity, treated/control (T/C)” value ([3]; CDK19 knockout SW620 xenografts) was 66 ± 3% and the “antitumor activity, treated/control (T/C)” value ([3]; parental SW620 xenografts) was 63%.
